A short description of data set [1]: Lipophilicity, logP of compound by shake flask method. Type of data set: physicochemical. The conditions noted are these: octanol/water.
Data set [2] concerns MCF7. The data set is described as follows: Cytotoxicity against human MCF7 cells measured after 48 hrs by MTT assay. It counts as functional, cell-based. The following applies: MCF7, 48 h. (In general: Tetrazolium dyes change colour on reduction, which living cells bring about.)
For data set [3], the system named is HCC1937. The data set is described as follows: Cytotoxicity against human HCC1937 cells measured after 48 hrs by MTT assay. It counts as functional, cell-based. The following applies: HCC1937, 48 h.
For data set [4], the system named is HepG2. Nature of the data set: Cytotoxicity against human HepG2 cells measured after 48 hrs by MTT assay. It counts as functional, cell-based. The following applies: HepG2, 48 h.
In data set [5] the test system is HCT-116. Nature of the data set: Cytotoxicity against human HCT-116 cells measured after 48 hrs by MTT assay. The following applies: HCT-116, 48 h. Type of data set: functional, cell-based.
Data set [6] concerns BGC-823. Nature of the data set: Cytotoxicity against human BGC-823 cells measured after 48 hrs by MTT assay. The conditions noted are these: BGC-823, 48 h. Type of data set: functional, cell-based.
In data set [7] the test system is A549. Nature of the data set: Cytotoxicity against human A549 cells measured after 48 hrs by MTT assay. It counts as functional, cell-based. The conditions noted are these: A549, 48 h.
Data set [8] relates to MCF7. Nature of the data set: Anticlonogenic activity against human MCF7 cells assessed as inhibition of colony formation at 5 to 10 uM measured after 48 hrs by crystal violet staining based colony forming assay. Type of data set: functional, cell-based. The conditions noted are these: dose 5-10 µM.
Data set [9] concerns MCF7. Nature of the data set: Antimigratory activity against human MCF7 cells at 5 uM after 24 hrs by inverted fluorescence microscope analysis relative to control (reference value: 82.9%). Type of data set: functional.
For data set [10], the system named is MCF7. Nature of the data set: Antimigratory activity against human MCF7 cells at 10 uM after 24 hrs by inverted fluorescence microscope analysis relative to control (reference value: 82.9%). Type of data set: functional.
Data set [11] relates to MCF7. The data set is described as follows: Cell cycle arrest in human MCF7 cells assessed as accumulation of cells at G1 phase at 10 uM measured after 24 hrs by PI staining based flow cytometry assay (reference value: 59.45%). It counts as functional.
Data set [12] concerns MCF7. The data set is described as follows: Cell cycle arrest in human MCF7 cells assessed as accumulation of cells at S phase at 10 uM measured after 24 hrs by PI staining based flow cytometry assay (reference value: 25.64%). It counts as functional. For orientation: In flow cytometry, cells or beads pass a laser one at a time.
Data set [13] has as its system MCF7. The data set is described as follows: Cell cycle arrest in human MCF7 cells assessed as accumulation of cells at G2 phase at 10 uM measured after 24 hrs by PI staining based flow cytometry assay (reference value: 14.91%). Type of data set: functional.
The subject of data set [14] is MCF7. Nature of the data set: Cell cycle arrest in human MCF7 cells assessed as accumulation of cells at G1 phase at 20 uM measured after 24 hrs by PI staining based flow cytometry assay (reference value: 59.45%). It counts as functional.
Data set [15] relates to MCF7. The data set is described as follows: Cell cycle arrest in human MCF7 cells assessed as accumulation of cells at S phase at 20 uM measured after 24 hrs by PI staining based flow cytometry assay (reference value: 25.64%). It counts as functional.
Data set [16] relates to MCF7. The data set is described as follows: Cell cycle arrest in human MCF7 cells assessed as accumulation of cells at G2 phase at 20 uM measured after 24 hrs by PI staining based flow cytometry assay (reference value: 14.91%). It counts as functional.
The test system of data set [17] is MCF7. The data set is described as follows: Induction of apoptosis in human MCF7 cells assessed as cell shrinkage at 20 uM measured after 24 hrs by Hoechst 33342 staining based flourescence microscopy method. Type of data set: functional.
For data set [18], the system named is MCF7. The data set is described as follows: Induction of apoptosis in human MCF7 cells assessed as nuclear changes at 20 uM measured after 24 hrs by Hoechst 33342 staining based flourescence microscopy method. It counts as functional, cell-based.
In data set [19] the test system is MCF7. The data set is described as follows: Induction of apoptosis in human MCF7 cells assessed as viable cells at 10 uM measured after 24 hrs by AnnexinV/[…]-PI staining based flow cytometry method (Rvb =97 %). The conditions noted are these: read-out: Activity. It counts as functional.
In data set [20] the test system is MCF7. The data set is described as follows: Induction of apoptosis in human MCF7 cells assessed as early apoptotic cells at 10 uM measured after 24 hrs by AnnexinV/[…]-PI staining based flow cytometry method (Rvb =0.466 %). It counts as functional.
The test system of data set [21] is MCF7. The data set is described as follows: Induction of apoptosis in human MCF7 cells assessed as late apoptotic cells at 10 uM measured after 24 hrs by AnnexinV/[…]-PI staining based flow cytometry method (Rvb =1.28 %). Type of data set: functional.
For data set [22], the system named is MCF7. Nature of the data set: Induction of apoptosis in human MCF7 cells assessed as necrotic cells at 10 uM measured after 24 hrs by AnnexinV/[…]-PI staining based flow cytometry method (Rvb =1.28 %). It counts as functional.
For data set [23], the system named is MCF7. The data set is described as follows: Induction of apoptosis in human MCF7 cells assessed as viable cells at 20 uM measured after 24 hrs by AnnexinV/[…]-PI staining based flow cytometry method (Rvb =97 %). It counts as functional. The following applies: read-out: Activity.
Data set [24] relates to MCF7. The data set is described as follows: Induction of apoptosis in human MCF7 cells assessed as early apoptotic cells at 20 uM measured after 24 hrs by AnnexinV/[…]-PI staining based flow cytometry method (Rvb =0.466 %). Type of data set: functional.
Data set [25] deals with MCF7. Nature of the data set: Induction of apoptosis in human MCF7 cells assessed as late apoptotic cells at 20 uM measured after 24 hrs by AnnexinV/[…]-PI staining based flow cytometry method (Rvb =1.28 %). It counts as functional.
Data set [26] relates to MCF7. Nature of the data set: Induction of apoptosis in human MCF7 cells assessed as necrotic cells at 20 uM measured after 24 hrs by AnnexinV/[…]-PI staining based flow cytometry method (Rvb =1.28 %). It counts as functional.
Data set [27] concerns MCF7. Nature of the data set: Induction of mitochondrial membrane potential loss in human MCF7 cells at 5 to 10 uM measured after 24 hrs by JC-1 staining based flourescence microscopy method. Type of data set: functional, cell-based. The following applies: dose 5-10 µM.
Data set [28] relates to MCF7. The data set is described as follows: Induction of apoptosis in human MCF7 cells assessed as increase in intracellular ROS levels at 10 uM measured after 24 hrs by DCFH-DA staining based flow cytometry method. It counts as functional, cell-based.
In data set [29] the test system is MCF7. The data set is described as follows: Induction of intracellular calcium level in human MCF7 cells at 5 to 10 uM measured after 24 hrs by Fluo-4AM staining based flourescence microscopy method. Type of data set: functional, cell-based. The following applies: dose 5-10 µM. Background: Calcium assays in cells follow changes in intracellular calcium, usually with a dye or a luminescent sensor.

The subject of data set [30] is MCF7. The data set is described as follows: Induction of apoptosis in human MCF7 cells assessed as decrease of COX-2 protein level at 10 uM measured after 24 hrs by Western blot assay. It counts as functional, cell-based.
Data set [31] concerns MCF7. The data set is described as follows: Induction of apoptosis in human MCF7 cells assessed as decrease of Bcl2 protein level at 10 uM measured after 24 hrs by Western blot assay. Type of data set: functional, cell-based.
Data set [32] concerns MCF7. Nature of the data set: Induction of apoptosis in human MCF7 cells assessed as increase of Bax protein level at 10 uM measured after 24 hrs by Western blot assay. Type of data set: functional, cell-based.
Data set [33] concerns MCF7. Nature of the data set: Induction of apoptosis in human MCF7 cells assessed as increase of Bax/Bcl2 ratio at 10 uM measured after 24 hrs by Western blot assay. Type of data set: functional, cell-based.
The subject of data set [34] is MCF7. The data set is described as follows: Induction of apoptosis in human MCF7 cells at 10 uM measured after 24 hrs by AnnexinV/[…]-PI staining based flow cytometry method. Type of data set: functional.
Data set [35] concerns MCF7. The data set is described as follows: Induction of apoptosis in human MCF7 cells at 20 uM measured after 24 hrs by AnnexinV/[…]-PI staining based flow cytometry method. Type of data set: functional.

SMILES strings stand for the structures. Calls of active or inactive are those of the source. The rule behind the calls is not given here.

As a reminder, the logP is a log measure of how a compound divides between an organic and an aqueous phase. Lower therefore signals a more hydrophilic compound. In general, IC50 refers to the concentration at which inhibition is half-maximal. Lower therefore signals greater potency in that assay. The compound `COc1ccc(-c2oc3cc(OC)cc(OC)c3c(=O)c2OCCCCCCCCCCCN2C[C@H](O)[C@@H](O)[C@H](O)[C@H]2CO)cc1` yielded a logP in data set [1] of 2.92. The IC50 in data set [2] was 3.6 µM; in data set [3], 7.1 µM; in [4], 7.7 µM; in data set [5], 7.8 µM; in data set [6], 4.5 µM; in data set [7], 5.1 µM. Moreover, the outcome in [8], in data set [17], in [18], in [27], in data set [28] and in data set [30] was Active. For the same compound, the outcome in data set [31], in data set [32] and in data set [33] was Active. In addition, the Activity in data set [9] is listed as 56.5%; in data set [10] it was 46%; in data set [11], 55.3%; in data set [12], 26.6%; in data set [13], 18.07%; in data set [14], 42.64%. In addition, the Activity in data set [15] was 56.48%; in data set [16], 0.87%; in data set [20] it was 0.508%; in data set [21], 5.97%; in data set [22] it was 4.03%; in data set [24], 37.9%. Also, the Activity in data set [25] is 29.9%; in [26], 4.83%; in data set [29], “Dose-Dependent Effect”; in data set [34], 6.48%; in [35], 67.8%. The viability at 10 µM in data set [19] was determined as 89.5%. Besides, in data set [23], the viability at 20 µM amounted to 27.3%.

Consider `OC[C@H]1NC[C@H](O)[C@@H](O)[C@@H]1O` [DUVOGLUSTAT], for which the logP in [1] is -0.68. The IC50 in data set [2], in [3], in data set [4], in data set [5], in [6] and in data set [7] was greater than 10 µM in each case. Moreover, the Activity in data set [10] worked out at 78.4%; in [14] it was 49.59%; in data set [15], 31.41%; in data set [16], 19%; in [24], 0.409%; in data set [25] it was 1.75%. Besides, the Activity in [26] stood at 1.19%. Moreover, the viability at 20 µM in data set [23] stood at 96.6%.

Turning to `COc1ccc(-c2oc3cc(OC)cc(OC)c3c(=O)c2OCCCCCN2C[C@H](O)[C@@H](O)[C@H](O)[C@H]2CO)cc1`, in [1], the logP amounted to 0.49. Moreover, the IC50 in data set [2], in [3], in [4], in data set [5], in [6] and in data set [7] was greater than 10 µM each time.

Turning to `O=c1c(O)c(-c2ccc(O)cc2)oc2cc(O)cc(O)c12` [KAEMPFEROL], the IC50 in data set [2], in [3], in data set [4], in data set [5], in data set [6] and in data set [7] was greater than 10 µM in each case. Further, the Activity came to 79.9% in data set [10]; 53.49% in data set [14]; 29.49% in data set [15]; 7.02% in [16]; 0.556% in data set [24]; 2.43% in data set [25]. Further, the Activity in [26] was 1.61%. In data set [23], the viability at 20 µM worked out at 95.4%. Also, the result in data set [30] was Active.

In data set [1], `COc1ccc(-c2oc3cc(OC)cc(OC)c3c(=O)c2OCCCCCCCCN2C[C@H](O)[C@@H](O)[C@H](O)[C@H]2CO)cc1` yielded a logP of 1.65. The IC50 was greater than 10 µM in data set [2]; greater than 10 µM in data set [3]; greater than 10 µM in data set [4]; 8.8 µM in data set [5]; greater than 10 µM in [6]; 7.6 µM in [7].

Source of the values: ChEMBL document CHEMBL5038584, “Dual-Targeting Antiproliferation Hybrids Derived from 1-Deoxynojirimycin and Kaempferol Induce MCF-7 Cell Apoptosis through the Mitochondria-Mediated Pathway” (J Nat Prod, 2021).
